Earlier results as cited in patent US20240358731A1, “SUMO PATHWAY AS AN OXYGEN SENSOR RELEVANT TO THE PATHOPHYSIOLOGY OF PULMONARY ARTERY HYPERTENSION AND CARDIAC ARRHYTHMIA” (Northeastern University, priority 2023, published 2024).

Columns and labels:
[1] = test system: pfSENP1; conditions: cited from earlier work
[2] = test system: SENP1 mRNA; conditions: cited from earlier work

In the case of O=C(O)CN(NC(=O)c1ccc(CNC(=O)c2cccc(C(=O)O)c2)cc1)C(=O)[C@H]1O[C@@H]1C(=O)N(Cc1cccc2ccccc12)Cc1cccc2ccccc12 [JCP-666], the pfSENP1 inhibition [1] is given as “inhibitor”.
In the case of CC(C)[C@]12O[C@H]1[C@@H]1O[C@]13[C@]1(O[C@H]1C[C@H]1C4=C(CC[C@@]13C)C(=O)OC4)[C@@H]2O [Triptolide], the “SENP1 mRNA levels” value [2] is listed as “decreased SENP1 mRNA levels”.
